In one data set the target is T1, human ORL1 receptor (Homo sapiens, UniProt P41146).
T1 construct: purchased PerkinElmer; host or cells: HEK-293
Put plainly: ORL1-receptor binding assay ([3H]nociceptin, SPA). Conditions: human ORL1 receptor transfected HEK-293 cell membranes, 0.4 nM [3H]nociceptin. How it is done: The human ORL1 receptor transfected HEK-293 cell membranes (PerkinElmer) were incubated for 45 min at room temperature with 0.4 nM [^3H]nociceptin, 1.0 mg of wheat germ agglutinin(WGA)-coated SPA beads and various concentrations of test compounds in a final volume of 200 μL of 50 mM HEPES buffer pH 7.4 containing 10 mM MgCl2 and 1 mM EDTA. Non-specific binding (NSB) was determined by the addition of 1 μM unlabeled nociceptin. After the reaction, the assay plate was centrifuged at 1,000 rpm for 1 min and then the radioactivity was measured by WALLAC 1450 MicroBeta Trilux.
The compounds of the examples were tested in the ORL1 Receptor Binding assay.

Another data set concerns the target T2, HERG potassium channel (Homo sapiens, UniProt Q12809).
T2 construct: expressed in transfected cells; host or cells: HEK-293
It counts as binding. The protocol: Cell paste of HEK-293 cells expressing the HERG product was suspended in 10-fold volume of 50 mM Tris buffer adjusted at pH 7.5 at 25° C. with 2 M HCl containing 1 mM MgCl2, 10 mM KCl. The cells were homogenized using a Polytron homogenizer (at the maximum power for 20 seconds) and centrifuged at 48,000 g for 20 minutes at 4° C. The pellet was resuspended, homogenized and centrifuged once more in the same manner. The resultant supernatant was discarded and the final pellet was resuspended (10-fold volume of 50 mM Tris buffer) and homogenized at the maximum power for 20 seconds. The membrane homogenate was aliquoted and stored at −80° C. until use. An aliquot was used for protein concentration determination using a Protein Assay Rapid Kit and ARVO SX plate reader (Wallac). […] Saturation was determined by incubating 20 μl of [^3H]-dofetilide and 160 μl of membrane homogenates (20-30 μg protein per well) for 60 min at room temperature in the absence or presence of 10 μM dofetilide at final concentrations (20 μl) for total or nonspecific binding, respectively. […] Receptor-bound radioactivity was quantified by liquid scintillation counting using Packard LS counter.
For the competition assay, compounds were diluted in 96 well polypropylene plates as 4-point dilutions in semi-log format. […] Receptor-bound radioactivity was quantified by counting Wallac MicroBeta plate counter.

Here are results for five compounds from patent US20080207665A1, “Alpha-(Aryl-or Heteroaryl-Methyl)-Beta-Piperidinopropanoic Acid Compounds as Orl-1-Receptor Antagonists” (Pfizer Inc., priority 2005, published 2008).

Broadly, the Ki is the dissociation constant of the complex between target and ligand, obtained from inhibition or displacement.

T1 sequence (P41146 whole entry): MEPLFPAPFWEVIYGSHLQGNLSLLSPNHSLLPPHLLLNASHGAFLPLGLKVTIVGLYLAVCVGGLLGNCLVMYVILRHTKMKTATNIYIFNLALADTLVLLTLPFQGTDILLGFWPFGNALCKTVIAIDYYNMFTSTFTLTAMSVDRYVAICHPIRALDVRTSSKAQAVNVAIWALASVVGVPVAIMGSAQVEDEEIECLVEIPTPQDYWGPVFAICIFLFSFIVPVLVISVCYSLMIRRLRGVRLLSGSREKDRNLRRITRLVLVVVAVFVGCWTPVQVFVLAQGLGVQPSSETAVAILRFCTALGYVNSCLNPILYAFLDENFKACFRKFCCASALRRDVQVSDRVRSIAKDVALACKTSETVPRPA
T2 sequence (Q12809 whole entry): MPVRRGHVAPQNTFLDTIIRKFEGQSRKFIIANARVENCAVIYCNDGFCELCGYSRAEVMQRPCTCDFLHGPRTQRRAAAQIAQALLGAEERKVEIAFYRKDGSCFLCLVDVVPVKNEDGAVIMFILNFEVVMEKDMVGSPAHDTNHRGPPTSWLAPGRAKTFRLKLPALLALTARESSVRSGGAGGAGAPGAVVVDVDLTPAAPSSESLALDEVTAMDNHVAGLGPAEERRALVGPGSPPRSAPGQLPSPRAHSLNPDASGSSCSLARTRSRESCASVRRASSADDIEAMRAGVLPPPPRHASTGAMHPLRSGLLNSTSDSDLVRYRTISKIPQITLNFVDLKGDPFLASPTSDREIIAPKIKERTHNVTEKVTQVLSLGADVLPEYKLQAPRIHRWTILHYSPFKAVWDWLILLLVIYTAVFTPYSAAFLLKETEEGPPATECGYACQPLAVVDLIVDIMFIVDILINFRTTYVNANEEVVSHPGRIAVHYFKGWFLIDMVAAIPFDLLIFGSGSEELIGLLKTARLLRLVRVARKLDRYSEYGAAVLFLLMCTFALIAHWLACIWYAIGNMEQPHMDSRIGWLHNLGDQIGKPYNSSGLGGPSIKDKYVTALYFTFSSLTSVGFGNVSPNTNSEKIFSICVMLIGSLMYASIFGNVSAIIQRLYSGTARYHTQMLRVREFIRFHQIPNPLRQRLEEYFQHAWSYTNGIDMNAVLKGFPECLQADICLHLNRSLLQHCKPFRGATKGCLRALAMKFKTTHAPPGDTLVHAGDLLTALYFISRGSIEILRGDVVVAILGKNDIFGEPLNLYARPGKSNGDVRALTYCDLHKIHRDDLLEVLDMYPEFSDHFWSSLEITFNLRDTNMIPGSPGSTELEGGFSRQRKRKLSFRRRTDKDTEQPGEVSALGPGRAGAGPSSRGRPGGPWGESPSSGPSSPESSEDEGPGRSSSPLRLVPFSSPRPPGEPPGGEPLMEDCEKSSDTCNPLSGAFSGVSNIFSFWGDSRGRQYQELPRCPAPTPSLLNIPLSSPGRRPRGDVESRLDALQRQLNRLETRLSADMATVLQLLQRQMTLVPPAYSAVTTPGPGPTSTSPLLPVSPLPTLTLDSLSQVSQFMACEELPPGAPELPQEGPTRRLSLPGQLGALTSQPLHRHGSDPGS

In turn, `O=C(O)C(Cc1ccccc1Cl)CN1C2CCC1CC1(C2)OCCc2cc(F)ccc21` (stereo not drawn) [Example 7, 2-(2-Chlorobenzyl)-3-(6′-fluoro-3′,4′-dihydro-8H-spiro[8-azabicyclo[3.2.1]octane-3,1′-isochromen]-8-yl)propanoic acid] came in with a Ki on human ORL1 receptor of 1.3 nM.

On to `CN1C(=O)C(CN2CCC3(CCc4ccccc43)CC2)Cc2ccccc21` (stereo not drawn) [Compound (i)], for which, at HERG potassium channel, the “activity in the dofetilide binding assay” value is “potent activity” and the “predicted HERG potassium channel inhibitory activity” value is listed as “high”.

In turn, `O=C(O)C(Cc1ccccc1Cl)CN1C2CCC1CC1(C2)OCc2ccc(F)cc21` (stereo not drawn) [Example 8, 2-(2-Chlorobenzyl)-3-(6′-fluoro-3′H,8H-spiro[8-azabicyclo[3.2.1]octane-3,1′-[2]benzofuran]-8-yl)propanoic acid] yielded a Ki on human ORL1 receptor of 3.4 nM.

On to `O=C(O)C(Cc1cc(O)ccc1Cl)CN1C2CCC1CC1(C2)OCc2ccc(F)cc21` (stereo not drawn) [Example 10, 2-(2-Chloro-5-hydroxybenzyl)-3-(6′-fluoro-3′H,8H-spiro[8-azabicyclo[3.2.1]octane-3,1′-[2]benzofuran]-8-yl)propanoic acid], for which, on human ORL1 receptor, the Ki is 3.3 nM.

For `O=C(O)C(Cc1cc(O)ccc1Cl)CN1C2CCC1CC1(C2)OCCc2cc(F)ccc21` (stereo not drawn) [Example 9, 2-(2-Chloro-5-hydroxybenzyl)-3-(6′-fluoro-3′,4′-dihydro-8H-spiro[8-azabicyclo[3.2.1]octane-3,1′-isochromen]-8-yl)propanoic acid], at human ORL1 receptor, the affinity, expressed as Ki, was 1.2 nM.
